Earlier results in patent US20230355643A1, “SOLVENT DELIVERY SYSTEM FOR TOPICAL DELIVERY OF ACTIVE AGENTS” (Timber Pharmaceuticals, Inc., priority 2019, published 2023).

conditions: log10 of organic solvent (such as octanol)/aqueous solvent partition coefficient

logP	Compound
3.4	CN(C)CCC(c1ccc(Br)cc1)c1ccccn1 (stereo not drawn) [brompheniramine]
~3.84	C=C1/C(=C\C=C2/CCC[C@]3(C)[C@@H]([C@H](C)/C=C/[C@@H](O)C4CC4)CC[C@@H]23)C[C@@H](O)C[C@@H]1O [calcipotriol]
~3.38	CN(C)CCC(c1ccc(Cl)cc1)c1ccccn1 (stereo not drawn) [chlorpheniramine]
~5.2	CN1CCC[C@@H]1CCO[C@](C)(c1ccccc1)c1ccc(Cl)cc1 [clemastine]
4.44	O=C(O)c1cc(-c2ccc(F)cc2F)ccc1O [diflunisal]
6.96	CC(C)(C)c1ccc(C(=O)CCCN2CCC(OC(c3ccccc3)c3ccccc3)CC2)cc1 [ebastine]
~5.5	Clc1ccc(COC(Cn2ccnc2)c2ccc(Cl)cc2Cl)cc1 (stereo not drawn) [econazole]
~3.7	Cc1ccc(-c2ncc(Cl)cc2-c2ccc(S(C)(=O)=O)cc2)cn1 [etoricoxib]
~3.1	CC(C(=O)O)c1cccc(Oc2ccccc2)c1 (stereo not drawn) [fenoprofen]
~4.16	CC(C(=O)O)c1ccc(-c2ccccc2)c(F)c1 (stereo not drawn) [flurbiprofen]
~4.27	COc1ccc2c(c1)c(CC(=O)O)c(C)n2C(=O)c1ccc(Cl)cc1 [indometocin]
~3,12	CC(C(=O)O)c1cccc(C(=O)c2ccccc2)c1 (stereo not drawn) [ketoprofen]
~5.12	Cc1cccc(Nc2ccccc2C(=O)O)c1C [mefenamic acid]
~6.1	Clc1ccc(COC(Cn2ccnc2)c2ccc(Cl)cc2Cl)c(Cl)c1 (stereo not drawn) [miconazole]
~5.84	Clc1ccc(CO/N=C(\Cn2ccnc2)c2ccc(Cl)cc2Cl)c(Cl)c1 [oxiconazole]
~3.06	CN1C(C(=O)Nc2ccccn2)=C(O)c2ccccc2S1(=O)=O [piroxicam]
~3.44	O=C(Oc1ccccc1C(=O)O)c1ccccc1O [salsalate]
~5.6	CCOC(=O)c1ccc(C#Cc2ccc3c(c2)C(C)(C)CCS3)nc1 [tazarotene, ethyl 6-[2-(4,4-dimethyl-2,3-dihydrothiochromen-6-yl)ethynyl]pyridine-3-carboxylate]
~3.32	Cc1onc(-c2ccccc2)c1-c1ccc(S(N)(=O)=O)cc1 [valdecoxib]
~6.76	texaphyrin

Compound	logP
ivermectin	~5.83
